Experiments:
[1] = tested on: clots induced in rat inferior vena cava; assay: Incorporation into clots induced in a rat model (rat inferior vena cava model); type: in vivo; conditions: rat IVC model
Procedure: The rats (Male Wistar, 250-350 g) were anaesthetised with 15% urethane. After laparotomy, the vena cava was isolated and freed of surrounding fat tissue. […] The average weight of the clots formed in this model was around 27 mg, n=32, (5-50 mg range). The so compounds were injected 5 min post-induction. After 60 min the animals were sacrificed and the clot removed, weighed and counted. Other tissues e.g. blood, lung, heart, were also dissected and counted. The uptake of tracer into the clot was determined as the relative concentration (cpm/g of clot by dose/g animal ) and clot to background tissue.

[2] = Normal rat biodistribution; type: in vivo; conditions: i.v., male Wistar rats, Mean±SD n=3
Procedure: The resolution of a clot image is dependant on the combination of rate of incorporation of the radiopharmaceutical and its blood/tissues clearance rate. For this reason the biodistribution of several compounds has been determined in rats. Male Wistar (100-150 g) rats were injected i.v. with 0.1-0.2 ml of radiolabelled tracer solution (8 MBq/ml) and dissected at different times post-injection. The % ID in each of the selected tissues was measured. Some animals were kept in metabolism cages to be able to determine the % ID excreted in urine and faeces. The dissection times used for the majority of the agents was 2, 15, 30, 60, 240 min. Data are shown as % ID, Mean±SD, (n=3).

[3] = tested on: human plasma clots; assay: Incorporation into human plasma clots (in vitro plasma clot assay); type: biochemical; conditions: control vials without thrombin and calcium chloride, 60 minutes
Procedure: (§1) Incorporation of radiolabelled substrates into fibrin was investigated by induction of an in vitro human plasma clot in the following manner. To a siliconised 5 ml glass vial was added, (a) 800 μl of Tris(hydroxymethyl)aminomethane buffered saline pH 7.5 containing calcium chloride (50 mM Tris, 150 mM sodium chloride, 4 mM calcium chloride.), (b) 40 μl of physiological salt solution containing 100 units of thrombin per ml, (c) 400 μl of human plasma containing the radiolabelled substrate at a concentration of typically 10 kBq/ml. To aid induction of clot a roughened glass rod was added to the reaction vial. Control vials were prepared similarly but with the omission of thrombin and calcium chloride.
(§2) The proportion of total radioactivity was calculated by counting in suitable detection apparatus.
(§3) The fraction of radioactivity retained on the filter, after subtraction of the non-specific binding determined from the control, is a measure of incorporation into the filtered clots.

[4] = target: T1, human plasma clots (Homo sapiens, UniProt P00488); assay: as above; type: biochemical
T1 construct: Factor XIII is transformed into its active form Factor XIIIa by thrombin in the presence of calcium ions; from tissue; host or cells: human plasma, clotted in vitro with thrombin and calcium chloride
T1 sequence (P00488 39-732): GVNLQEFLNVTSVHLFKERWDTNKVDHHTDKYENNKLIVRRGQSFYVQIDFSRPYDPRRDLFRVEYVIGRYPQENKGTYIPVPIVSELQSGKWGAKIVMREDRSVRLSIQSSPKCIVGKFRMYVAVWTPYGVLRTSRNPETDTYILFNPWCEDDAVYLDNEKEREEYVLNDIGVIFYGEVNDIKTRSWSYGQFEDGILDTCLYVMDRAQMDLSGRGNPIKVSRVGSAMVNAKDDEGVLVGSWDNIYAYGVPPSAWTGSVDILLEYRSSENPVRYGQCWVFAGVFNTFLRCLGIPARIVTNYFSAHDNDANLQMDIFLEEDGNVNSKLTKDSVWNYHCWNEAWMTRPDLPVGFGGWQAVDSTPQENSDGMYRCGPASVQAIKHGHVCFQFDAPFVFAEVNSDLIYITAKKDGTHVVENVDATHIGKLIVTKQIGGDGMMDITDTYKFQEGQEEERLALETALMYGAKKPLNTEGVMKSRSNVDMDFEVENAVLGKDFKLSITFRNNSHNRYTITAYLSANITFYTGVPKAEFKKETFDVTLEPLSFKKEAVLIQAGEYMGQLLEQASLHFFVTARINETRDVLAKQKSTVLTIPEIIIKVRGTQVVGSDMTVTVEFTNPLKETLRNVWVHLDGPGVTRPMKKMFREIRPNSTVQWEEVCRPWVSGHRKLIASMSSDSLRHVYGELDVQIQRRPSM
Procedure: as §1, §2, §3

[5] = target: T2, Factor XIIIa (Homo sapiens, UniProt P00488); assay: Factor XIIIa dependency of incorporation (dimethylcasein uptake, normal vs Factor XIII deficient plasma); type: biochemical; conditions: 1 KBq/ml, 60 minutes; uptake in normal plasma minus Factor XIII deficient plasma
T2 construct: Factor XIII is transformed into its active form Factor XIIIa by thrombin in the presence of calcium ions; from tissue; host or cells: human plasma
T2 sequence (P00488 39-732 limits assumed): T1 sequence (P00488 39-732)
Procedure: The assay was changed by replacing the mercaptoethanol with aprotinin at a final concentration of 2 μg/ml, and dimethylcasein (DMC) was used instead of casein.

[6] = compound injected 5 min post-induction, clot removed after 60 min

- % ID Blood ([2]; 2 min post-injection): 18.5 ± 1.06 % ID
- % ID GI Tract ([2]; 2 min post-injection): 6.31 ± 0.6 % ID
- % ID Heart ([2]; 2 min post-injection): 0.34 + 0.17 % ID
- % ID Kidney ([2]; 2 min post-injection): 12.3 ± 0.53 % ID
- % ID Liver ([2]; 2 min post-injection): 4.3 ± 0.06 % ID
- % ID Lung ([2]; 2 min post-injection): 1.69 ± 0.1 % ID
- % ID Muscle ([2]; 2 min post-injection): 25.9 ± 1.8 % ID
- % ID Spleen ([2]; 2 min post-injection): 0.33 ± 0.07 % ID
- % ID Urine ([2]; 2 min post-injection): 1.38 ± 1.34 % ID
- % ID Blood ([2]; 15 min post-injection): 9.46 ± 0.24 % ID
- % ID GI Tract ([2]; 15 min post-injection): 9.6 ± 0.9 % ID
- % ID Heart ([2]; 15 min post-injection): 0.27 + 0.06 % ID
- % ID Kidney ([2]; 15 min post-injection): 7.32 ± 0.76 % ID
- % ID Liver ([2]; 15 min post-injection): 4.25 ± 0.85 % ID
- % ID Lung ([2]; 15 min post-injection): 0.9 ± 0.16 % ID
- % ID Muscle ([2]; 15 min post-injection): 15.6 ± 1.05 % ID
- % ID Spleen ([2]; 15 min post-injection): 0.17 ± 0.04 % ID
- % ID Urine ([2]; 15 min post-injection): 30.1 ± 1.28 % ID
- % ID Blood ([2]; 30 min post-injection): 5.7 ± 0.42 % ID
- % ID GI Tract ([2]; 30 min post-injection): 13.07 ± 1.4 % ID
- % ID Heart ([2]; 30 min post-injection): 0.17 + 0.04 % ID
- % ID Kidney ([2]; 30 min post-injection): 7.1 ± 1.89 % ID
- % ID Liver ([2]; 30 min post-injection): 2.94 ± 0.22 % ID
- % ID Lung ([2]; 30 min post-injection): 0.54 ± 0.07 % ID
- % ID Muscle ([2]; 30 min post-injection): 8.51 ± 0.93 % ID
- % ID Spleen ([2]; 30 min post-injection): 0.11 ± 0.03 % ID
- % ID Urine ([2]; 30 min post-injection): 46.9 ± 3.71 % ID
- % ID Blood ([2]; 60 min post-injection): 2.23 ± 0.15 % ID
- % ID GI Tract ([2]; 60 min post-injection): 17.7 ± 3.8 % ID
- % ID Heart ([2]; 60 min post-injection): 0.07 + 0.02 % ID
- % ID Kidney ([2]; 60 min post-injection): 3.77 ± 0.73 % ID
- % ID Liver ([2]; 60 min post-injection): 1.79 ± 0.45 % ID
- % ID Lung ([2]; 60 min post-injection): 0.28 ± 0.02 % ID
- % ID Muscle ([2]; 60 min post-injection): 4.31 ± 0.95 % ID
- % ID Spleen ([2]; 60 min post-injection): 0.07 ± 0.02 % ID
- % ID Urine ([2]; 60 min post-injection): 65.8 ± 3.4 % ID
- % ID Blood ([2]; 240 min post-injection): 0.09 ± 0.02 % ID
- % ID GI Tract ([2]; 240 min post-injection): 25.4 ± 5.2 % ID
- % ID Heart ([2]; 240 min post-injection): 0.01 % ID
- % ID Kidney ([2]; 240 min post-injection): 5.1 ± 0.99 % ID
- % ID Liver ([2]; 240 min post-injection): 1 + 0.17 % ID
- % ID Lung ([2]; 240 min post-injection): 0.1 ± 0.01 % ID
- % ID Muscle ([2]; 240 min post-injection): 0.81 ± 0.26 % ID
- % ID Spleen ([2]; 240 min post-injection): 0.03 ± 0.02 % ID
- % ID Urine ([2]; 240 min post-injection): 66.08 ± 4.98 % ID
- % specific uptake* ([4]; % retained with thrombin − % retained no thrombin): 14.7%
- % retained in plasma clot assay (with thrombin) ([4]; human plasma with thrombin and calcium chloride, 60 minutes, ca. 20° C.): 17%
- % specific DMC casein uptake [5]: 22.5%
SMILES: CC(=NO)C(C)(C)NCCN(CCNC(=O)C1CCC(CNC(=O)c2ccc(S(=O)(=O)NCCCCCN)cc2)CC1)CCNC(C)(C)C(C)=NO (stereo not shown) [Compound 17]
- Clot/Blood ([1]; 60 min): 1.15
- Clot/Heart ([1]; 60 min): 2.7
- Clot/Liver ([1]; 60 min): 1.26
- Clot/Lung ([1]; 60 min): 1.54
- % ID/g (clot uptake) [1, 6]: 0.32 ± 0.04 % ID/g
- Relative conc (cpm/g of clot by dose/g animal) [1, 6]: 1.1 ± 0.17
- % retained in plasma clot assay (no thrombin) [3]: 2.3%

— patent US6897209B2, “Labelled factor XIIIa substrates” (GE Healthcare Limited, priority 1997, dated 2005)
